Values quoted from earlier work, collected in article PMC6819114, “Peptide-conjugated oligonucleotides evoke long-lasting myotonic dystrophy correction in patient-derived cells and mice” (The Journal of Clinical Investigation, 2019).

Text: Among strategies to improve delivery of ASOs in DM1 skeletal muscles, cell-penetrating peptide conjugates offer an attractive avenue ([22]–[24]). Indeed, systemic administration of advanced Pip6a peptides conjugated with splice-switch oligonucleotides has shown promising results in DMD mice by restoring a truncated but functional dystrophin ([25]). Pip6a is a cell-penetrating peptide composed of a hydrophobic core region flanked on each side by arginine-rich domains containing β-alanine and aminohexanoyl spacers. This peptide sequence has the ability to deliver associated cargoes across the pl ...

stability to serum proteolysis: stable
Substance: Ac-(RXRRBRRXRYQF LIRXRBRXRB)-CO OH [Pip6a, arginine-rich cell-penetrating peptide: hydrophobic core flanked by arginine-rich domains containing β-alanine and aminohexanoyl spacers]
